Test [1] has as its target T1, IDO (Homo sapiens, UniProt P14902). Kind of test: SKOV3 kynurenine cell-based assay (IDO induced by IFN-γ). On the set-up: IDO expression was induced in the SKOV3 cells by the addition of 500 ng/ml IFN-γ; endogenous in cells; host or cells: SKOV3 (human ovarian adenocarcinoma), induced with IFN-γ. As to conditions: SKOV3 human ovarian adenocarcinoma cells, 500 ng/ml IFN-γ, 48 hours, 500 μM L-tryptophan; read-out: SKOV3 Kynurenine cell based assay pIC50 (converted). Summed up:
(§1)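 First, A172 or SKOV3 cells were seeded in phenol red-free RPMI, 10% FCS, 2 mM L-glutamine, 500 μM L-tryptophan; SKOV3 received 500 ng/ml IFN-γ for IDO induction. Next came compound exposure, 48 hours, 37° C. Finally, cells were spun out, supernatant treated with Erhlich's reagent, absorbance read at 490 nm.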

Test [2] addresses T2, TDO (Homo sapiens, UniProt P48775). Kind of test: hTDO biochemical coupled assay. To be noted: 330 μM L-tryptophan, 17 minutes, room temperature; read-out: hTDO biochemical assay pIC50 (converted).
Excerpt: Two different assays were employed: 1. a cell-based assay for detecting the effect of test compounds on kynurenine production in two different cancer cell types. This assay utilised cancer cells which expressed either TDO or IDO and as such was used as a means of testing compound activity at these two enzymes in a cell-based context. 2. a TDO and IDO biochemical coupled assay which utilised recombinantly produced and purified TDO and IDO enzymes in combination with the enzyme formamidase. This coupled enzyme system allowed conversion of N-formylkynurenine produced by TDO or IDO activity to kynurenine which was then quantified by fluorescence following addition of Erhlich's Reagent The protocols for these are set out below.
Test [3] concerns the target T1, IDO. The test is described as follows: hIDO biochemical coupled assay. To be noted: 45 μM L-tryptophan, 17 minutes, room temperature; read-out: hIDO biochemical assay pIC50 (converted).
Test [4] deals with T2, TDO. The test is described as follows: A172 kynurenine cell-based assay. More on the design: This assay utilised cancer cells which expressed either TDO or IDO; endogenous in cells; host or cells: A172 (human glioblastoma). To be noted: A172 human glioblastoma cells, 48 hours, 500 μM L-tryptophan; read-out: A172 Kynurenine cell based assay pIC50 (converted). The method, boiled down: as §1

T1 sequence (P14902 whole entry): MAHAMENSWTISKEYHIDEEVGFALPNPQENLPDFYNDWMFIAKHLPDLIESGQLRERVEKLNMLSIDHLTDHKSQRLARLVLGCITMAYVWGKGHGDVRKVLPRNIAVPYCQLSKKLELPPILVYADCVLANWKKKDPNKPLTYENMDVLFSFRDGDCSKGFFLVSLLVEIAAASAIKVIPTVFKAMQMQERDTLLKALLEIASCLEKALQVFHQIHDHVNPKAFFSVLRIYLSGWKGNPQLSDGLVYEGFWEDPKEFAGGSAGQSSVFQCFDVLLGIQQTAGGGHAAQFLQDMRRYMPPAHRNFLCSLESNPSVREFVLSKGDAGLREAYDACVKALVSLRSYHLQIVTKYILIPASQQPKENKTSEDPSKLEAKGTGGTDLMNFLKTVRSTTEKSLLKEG
T2 sequence (P48775 whole entry): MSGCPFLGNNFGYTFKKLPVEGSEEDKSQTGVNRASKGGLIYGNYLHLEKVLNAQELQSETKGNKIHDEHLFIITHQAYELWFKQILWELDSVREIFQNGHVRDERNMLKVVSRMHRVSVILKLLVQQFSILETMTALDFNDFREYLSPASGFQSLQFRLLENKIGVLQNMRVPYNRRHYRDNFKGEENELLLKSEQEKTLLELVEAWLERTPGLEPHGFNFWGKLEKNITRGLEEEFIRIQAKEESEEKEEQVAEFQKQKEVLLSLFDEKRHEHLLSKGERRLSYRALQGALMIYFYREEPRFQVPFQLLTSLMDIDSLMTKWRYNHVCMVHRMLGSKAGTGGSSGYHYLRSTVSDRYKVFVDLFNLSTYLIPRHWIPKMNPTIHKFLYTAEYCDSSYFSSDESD

Regarding `NC(=O)c1ccc(-c2cc(Cl)cc3[nH]ncc23)cc1` [Compound 256], the IC50 was 3.24 to 31.6 µM on IDO [1], less than 3.16 µM at TDO [2], more than 100 µM at IDO [3] and less than 3.16 µM at TDO [4].

Take `c1ccc(Nc2cccc3[nH]ncc23)cc1` [Compound 36]: the IC50 on IDO [1] was more than 100 µM; at TDO [2] it was less than 3.16 µM; on IDO [3], more than 100 µM; at TDO [4] it was 3.24 to 31.6 µM.

On to `CNC(=O)c1ccc(N2CCN(c3cc(Cl)cc4[nH]ncc34)CC2)cc1` [Compound 445], for which the IC50 was less than 3.16 µM at IDO [1], less than 3.16 µM on TDO [2], more than 100 µM at IDO [3] and less than 3.16 µM at TDO [4].

`CC(=O)N1CCN(c2cccc3[nH]ncc23)CC1` [Compound 11]: the IC50 on IDO [1] is 32.4 to 100 µM; at TDO [2] it was 32.4 to 100 µM; at IDO [3] it was more than 100 µM; on TDO [4], 3.24 to 31.6 µM.

For the molecule `CC(=O)Nc1ccc2c(c1)CCN(c1cc(Cl)cc3[nH]ncc13)C2` [Compound 358], the IC50 was 3.24 to 31.6 µM at IDO [1], less than 3.16 µM on TDO [2], more than 100 µM on IDO [3] and less than 3.16 µM at TDO [4].

Regarding `O[C@H]1CCCC[C@@H]1c1cc(Cl)cc2[nH]ncc12` [Compound 418], the IC50 on IDO [1] is more than 100 µM; at TDO [2], less than 3.16 µM; at IDO [3] it was more than 100 µM; on TDO [4], less than 3.16 µM.

Turning to `Clc1cc(N2C[C@H]3CC[C@@H](C2)NC3)c2cn[nH]c2c1` [Compound 448], the IC50 was more than 100 µM at IDO [1], less than 3.16 µM at TDO [2], 3.24 to 31.6 µM at IDO [3] and less than 3.16 µM at TDO [4].

Regarding `Clc1cc(N2CCc3ccccc3C2)c2cn[nH]c2c1` [Compound 304], the IC50 at IDO [1] is 32.4 to 100 µM; on TDO [2], less than 3.16 µM; on IDO [3], more than 100 µM; on TDO [4], less than 3.16 µM.

As for `O=C1Nc2ccccc2NC12CCN(c1cc(Cl)cc3[nH]ncc13)CC2` [Compound 404], the IC50 at IDO [1] was less than 3.16 µM; on TDO [2], less than 3.16 µM; on IDO [3], 32.4 to 100 µM; on TDO [4] it was 3.24 to 31.6 µM.

In the case of `CNC(=O)CN1CCN(c2cc(Cl)cc3[nH]ncc23)CC1(C)C` [Compound 413], the IC50 on IDO [1] was 3.24 to 31.6 µM; at TDO [2], less than 3.16 µM; on IDO [3], less than 3.16 µM; at TDO [4], less than 3.16 µM.

As for `O=C1NC2(CCN(c3cc(Cl)cc4[nH]ncc34)CC2)C(=O)N1CC1CCCCC1` [Compound 389], the IC50 at IDO [1], on TDO [2], on IDO [3] and on TDO [4] was less than 3.16 µM throughout.

`CC(=O)Nc1ccc(C2CCN(c3cc(Cl)cc4[nH]ncc34)CC2)cc1` [Compound 441]: the IC50 on IDO [1] is less than 3.16 µM; on TDO [2], less than 3.16 µM; on IDO [3], more than 100 µM; at TDO [4] it was less than 3.16 µM.

Turning to `CS(=O)(=O)Nc1ccc(C2CCN(c3cc(Cl)cc4[nH]ncc34)CC2)cc1` [Compound 437], the IC50 at IDO [1] was less than 3.16 µM; at TDO [2], less than 3.16 µM; at IDO [3], 3.24 to 31.6 µM; on TDO [4] it was less than 3.16 µM.

With `NS(=O)(=O)N1CC2(CCN(c3cc(Cl)cc4[nH]ncc34)CC2)C1` [Compound 367], the IC50 at IDO [1] is 3.24 to 31.6 µM; at TDO [2], less than 3.16 µM; on IDO [3], 3.24 to 31.6 µM; on TDO [4] it was less than 3.16 µM.

In the case of `Clc1cc(N2CCN(c3ccccn3)CC2)c2cn[nH]c2c1` [Compound 324], the IC50 at IDO [1] was 3.24 to 31.6 µM; on TDO [2], less than 3.16 µM; on IDO [3], more than 100 µM; at TDO [4], less than 3.16 µM.

As for `CN1CC2(CCN(c3cc(Cl)cc4[nH]ncc34)CC2)CC1=O` [Compound 291], the IC50 on IDO [1] was 3.24 to 31.6 µM; at TDO [2], less than 3.16 µM; on IDO [3], more than 100 µM; on TDO [4] it was less than 3.16 µM.

As to `O=C1CCC2(CCN1)CCN(c1cc(Cl)cc3[nH]ncc13)CC2` [Compound 394], the IC50 was less than 3.16 µM at IDO [1], less than 3.16 µM at TDO [2], 3.24 to 31.6 µM on IDO [3] and less than 3.16 µM on TDO [4].

On to `Clc1cc(-c2cnn(-c3ccccc3)c2)c2cn[nH]c2c1` [Compound 399], for which the IC50 on IDO [1] is more than 100 µM; on TDO [2] it was more than 100 µM; on IDO [3], more than 100 µM; on TDO [4], less than 3.16 µM.

Take `O=C1NCCN1C1CCN(c2cc(Cl)cc3[nH]ncc23)CC1` [Compound 410]: the IC50 on IDO [1] is 3.24 to 31.6 µM; at TDO [2], less than 3.16 µM; at IDO [3], more than 100 µM; on TDO [4], less than 3.16 µM.

On to `CN1C(=O)[C@@H]2CC[C@H]1CN(c1cc(Br)cc3[nH]ncc13)C2` [Compound 455], for which the IC50 was more than 100 µM at IDO [1], less than 3.16 µM at TDO [2], 3.24 to 31.6 µM at IDO [3] and less than 3.16 µM on TDO [4].

As to `O=c1[nH]c2ccccc2n1C1CCN(c2cc(Cl)cc3[nH]ncc23)CC1` [Compound 354], the IC50 at IDO [1] is 3.24 to 31.6 µM; on TDO [2], less than 3.16 µM; at IDO [3] it was more than 100 µM; on TDO [4], less than 3.16 µM.

`CC(=O)N1CCC2(CC1)CN(c1cc(Cl)cc3[nH]ncc13)C2` [Compound 452]: the IC50 on IDO [1] was less than 3.16 µM; at TDO [2], less than 3.16 µM; at IDO [3], more than 100 µM; at TDO [4] it was less than 3.16 µM.

`CC(=O)N1CCOC2(CCN(c3cc(Cl)cc4[nH]ncc34)CC2)C1` [Compound 409]: the IC50 on IDO [1] is more than 100 µM; at TDO [2] it was less than 3.16 µM; at IDO [3] it was 32.4 to 100 µM; on TDO [4], 3.24 to 31.6 µM.

Source of the values: patent US10590086B2, “Pharmaceutical compound” (IOmet Pharma Ltd., priority 2014, dated 2020).
